Data reported in US10800784B2, “Nitrogen-containing heterocyclic amide compound and pharmaceutical use thereof” (Japan Tobacco Inc., priority 2018, dated 2020).

What was measured:
human PDHK1 (hPDHK1) = human PDHK1 (hPDHK1) (Homo sapiens (Human), UniProt Q15118); experiment: Inhibitory action of PDHK1 activity in vitro (residual PDH activity after PDHK reaction); assay type: biochemical; details: for IC50: PDH/hPDHK1 complex solution, PDHK reaction at room temperature for 45 min, NADH absorbance at 340 nm, read-out: hPDK1 IC50; for inhibition at 0.003 µM: at 3 nmol/L, shown when IC50 value could not be calculated, read-out: hPDHK1 inhibitory rate at the lowest concentration of the test compound
human PDHK1 (hPDHK1), sequence (Q15118 29-436): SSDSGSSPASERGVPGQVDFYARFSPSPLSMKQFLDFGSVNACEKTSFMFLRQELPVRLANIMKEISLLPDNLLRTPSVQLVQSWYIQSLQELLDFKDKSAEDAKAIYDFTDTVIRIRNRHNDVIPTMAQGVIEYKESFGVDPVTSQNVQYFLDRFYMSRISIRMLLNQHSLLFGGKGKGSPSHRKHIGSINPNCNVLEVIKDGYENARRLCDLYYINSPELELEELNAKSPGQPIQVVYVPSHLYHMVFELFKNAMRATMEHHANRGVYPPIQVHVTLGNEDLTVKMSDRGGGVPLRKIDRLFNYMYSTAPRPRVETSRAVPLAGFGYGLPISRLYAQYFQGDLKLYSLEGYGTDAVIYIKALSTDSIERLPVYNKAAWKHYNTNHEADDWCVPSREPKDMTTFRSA
Method: (§1) The inhibitory action of PDHK activity was assessed indirectly by measuring the residual PDH activity after PDHK reaction in the presence of a test compound.
(Inhibitory Action of PDHK1 Activity)
In the case of human PDHK1 (hPDHK1, NCBI Reference Database Accession number NM_002610.3), a 1.3 kbp fragment encoding this protein was isolated from human liver cDNA by polymerase chain reaction (PCR). Modified hPDHK1 cDNA wherein FLAG-Tag sequence was added to the N terminus was prepared by PCR and ligated to the NdeI/EcoRI site of pET-17b vector (Merck MGaA, model number 69663-3). The recombinant construct was transformed into Escherichia coli DH5a (TOYOBO, model number DNA-903). The recombinant clones were identified, and plasmid DNA was isolated and subjected to the DNA sequence analysis. One clone which had the expected nucleic acid sequence was selected for expression work.
For expression of hPDHK1 activity, Escherichia coli strain BL21(DE3) cells (Merck KGaA, model number 69450-4) were transformed with the pET17b vector containing modified hPDHK1 cDNA. The Escherichia coli were grown to an optical density 0.6 ([…]) at 30° C. Protein expression was induced by the addition of 500 μmol/L isopropyl-β-thiogalactopyranoside. The Escherichia coli were cultured at 20° C. for 17-18 hr and harvested by centrifugation.
The harvested Escherichia coli was resuspended in a suspension buffer (20 mmol/L N-(2-hydroxyethyl)piperazine-N′-2-ethanesulfonic acid-sodium hydroxide (HEPES-NaOH), 500 mmol/L sodium chloride, 1% ethylene glycol, and 0.1% polyoxyethylene-polyoxypropylene block copolymer (Pluronic F-68), complete, EDTA-free (pH 8.0)) and disrupted by a microfluidizer M-110H (MIZUHO INDUSTRIAL CO., LTD.) or ultrasonication. The precipitate was removed by centrifugation and the supernatant was added to DDDDK-tagged Protein PURIFICATION GEL (MBL, model number 3329). DDDDK-tagged Protein PURIFICATION GEL was washed with a washing buffer (20 mmol/L HEPES-NaOH, 500 mmol/L sodium chloride, 1% ethylene glycol, 0.1% pluronic F-68 (pH 8.0)) and the bound protein was eluted with elution buffer 1 (20 mmol/L HEPES-NaOH, 100 μg/mL peptide (amino acid sequence DYKDDDDK) (SEQ ID NO: 1), 500 mmol/L sodium chloride, 1% ethylene glycol, 0.1% pluronic F-68 (pH 8.0)).
The eluted fractions containing FLAG-Tagged protein were pooled, concentrated by an ultrafiltration method, added to a gel filtration column (HiLoad 26/60 Superdex 200 (GE Healthcare, model number 17-1070-01)), and eluted with elution buffer 2 (20 mmol/L HEPES-NaOH, 150 mmol/L sodium chloride, 0.5 mmol/L ethylenediaminetetraacetic acid (EDTA), 1% ethylene glycol, 0.1% pluronic F-68 (pH 8.0)). The eluted fractions were pooled and preserved at −80° C.
(§2) 0.025 U/mL PDH (porcine heart PDH complex, Sigma P7032) and 0.5 μg/mL hPDHK1 were mixed in an assay buffer (50 mmol/L 3-morpholinopropanesulfonic acid (pH 7.0), 20 mmol/L dipotassium hydrogen phosphate, 60 mmol/L potassium chloride, 2 mmol/L magnesium chloride, 0.4 mmol/L EDTA, 0.2% poloxamer, 2 mmol/L dithiothreitol), and the mixture was incubated at 4° C. overnight to obtain a PDH/hPDHK1 complex solution. In the assay buffer, 0.025 U/mL PDH was mixed and incubated at 4° C. overnight to prepare a PDH solution.
The test compounds were diluted with dimethyl sulfoxide (DMSO). To measure an inhibitory action of the test compound on the PDHK activity in the PDH/hPDHK1 complex solution, PDH/hPDHK1 complex solution (20 μL), test compound (1.5 μL) and 0.353 μmol/L ATP (diluted with assay buffer) (8.5 μL) were added to a 384 well microplate (Greiner Bio-One 781801) and PDHK reaction was performed at room temperature for 45 min (test compound well). DMSO (1.5 μL) was added to control wells instead of test compound. In addition, DMSO (1.5 μL) was added to blank wells instead of the test compound, and PDH solution was added instead of the PDH/hPDHK1 complex solution. […]

human PDHK2 (hPDHK2) = human PDHK2 (hPDHK2) (Homo sapiens (Human), UniProt Q15119); experiment: Inhibitory action of PDHK2 activity in vitro (residual PDH activity after PDHK reaction); assay type: biochemical; details: for IC50: PDH/hPDHK2 complex solution, PDHK reaction at room temperature for 45 min, NADH absorbance at 340 nm, read-out: kPDK2 IC50
Method: as §1
(Inhibitory Action of PDHK2 Activity)
In the case of human PDHK2 (hPDHK2, NCBI Reference Database Accession number NM_002611.4), modified hPDHK2 cDNA wherein FLAG-Tag sequence was added to the N terminus of hPDHK2 cDNA clone (pReceiver-M01/PDK2-GeneCopoeia) as the base was prepared by PCR and ligated to the NdeI/EcoRI site of pET-17b vector. The recombinant construct was transformed into Escherichia coli DH5a. The recombinant clones were identified, and plasmid DNA was isolated and subjected to the DNA sequence analysis. One clone which had the expected nucleic acid sequence was selected for expression work.
For expression of hPDHK2 activity, Escherichia coli strain BL21(DE3) cells were transformed with the pET17b vector containing modified hPDHK2 cDNA. The Escherichia coli were grown to an optical density 0.6 ([…]) at 30° C. Protein expression was induced by the addition of 500 μmol/L isopropyl-β-thiogalactopyranoside. The Escherichia coli were cultured at 20° C. for 17-18 hr and harvested by centrifugation. The harvested Escherichia coli was resuspended in a suspension buffer (20 mmol/L HEPES-NaOH, 500 mmol/L sodium chloride, 1% ethylene glycol, 0.1% pluronic F-68 (pH 8.0), cOmplete, EDTA-free (pH 8.0)), and disrupted by a microfluidizer. The precipitate was removed by centrifugation and the supernatant was added to DDDDK-tagged Protein PURIFICATION GEL. DDDDK-tagged Protein PURIFICATION GEL was washed with a washing buffer (20 mmol/L HEPES-NaOH, 500 mmol/L sodium chloride, 1% ethylene glycol, 0.1% pluronic F-68 (pH 8.0)) and the bound protein was eluted with elution buffer 1 (20 mmol/L HEPES-NaOH, 100 μg/mL peptide (amino acid sequence DYKDDDDK) (SEQ ID NO: 1), 500 mmol/L sodium chloride, 1% ethylene glycol, 0.1% pluronic F-68 (pH 8.0)). The eluted fractions containing FLAG-Tagged protein were pooled, concentrated by an ultrafiltration method, added to a gel filtration column (HiLoad 26/60 Superdex 200), and eluted with elution buffer 2 (20 mmol/L HEPES-NaOH, 150 mmol/L sodium chloride, 0.5 mmol/L ethylenediaminetetraacetic acid (EDTA), 1% ethylene glycol, 0.1% pluronic F-68 (pH 8.0)). The eluted fractions were pooled and preserved at −80° C.
as §2, with “PDH” for “PDH (porcine heart PDH complex, Sigma P7032)”, “hPDHK2” for “hPDHK1”, “PDH/hPDHK2” for “PDH/hPDHK1”
The test compounds were diluted with DMSO. To measure an inhibitory action of the test compound on the PDHK activity in the PDH/hPDHK2 complex solution, PDH/hPDHK2 complex solution (20 μL), test compound (1.5 μL) and 1.06 μmol/L ATP (diluted with assay buffer) (8.5 μL) were added to a 384 well microplate and PDHK reaction was performed at room temperature for 45 min (test compound well). DMSO (1.5 μL) was added to control wells instead of test compound. In addition, DMSO (1.5 μL) was added to blank wells instead of the test compound, and PDH solution was added instead of the PDH/hPDHK2 complex solution. To measure an inhibitory action of the test compound on the PDHK activity inherent in the PDH solution, a test compound was added and the PDH solution instead of the PDH/hPDHK2 complex solution was added to a blank+test compound well.
Then, 10 μL of substrates (5 mmol/L sodium pyruvate, 5 mmol/L Coenzyme A, 12 mmol/L NAD, 5 mmol/L thiamine pyrophosphate, diluted with assay buffer) were added. The mixture was incubated at room temperature for 90 min, and the residual PDH activity was measured. […]

SMILES | IC50 (human PDHK1 (hPDHK1)) | inhibition at 0.003 µM (human PDHK1 (hPDHK1)) | IC50 (human PDHK2 (hPDHK2)) | hPDHK2 inhibitory rate at the lowest concentration of the test compound (human PDHK2 (hPDHK2); lowest concentration of the test compound in the assay (<3 nmol/L), shown when IC50 value could not be calculated)
C[C@H]1CN(C(=O)c2cccc(-c3ccc(F)cc3)n2)Cc2cnc([C@@](C)(O)C(F)(F)F)n21 [Example 38] | < 3 nM | 73% | 4 nM | –
C[C@H]1CN(C(=O)c2ncccc2-c2ccc(F)cc2)Cc2cnc([C@@](C)(O)C(F)(F)F)n21 [Example 39] | 46 nM | – | 18 nM | –
C[C@H]1CN(C(=O)c2c(Cl)c(-c3ccc(C#N)cc3)nn2C)Cc2cnc([C@@](C)(O)C(F)(F)F)n21 [Example 40, 4-(4-chloro-1-methyl-5-((S)-5-methyl-3-((R)-1,1,1-trifluoro-2-hydroxypropan-2-yl)-5,6,7,8-tetrahydroimidazo[1,5-a]pyrazine-7-carbonyl)-1H-pyrazol-3-yl)benzonitrile] | 5 nM | – | 6 nM | –
C[C@H]1CN(C(=O)c2nn(C)c(-c3ccc(C#N)cc3)c2Cl)Cc2cnc([C@@](C)(O)C(F)(F)F)n21 [Example 41] | 6 nM | – | 6 nM | –
C[C@H]1CN(C(=O)c2ccc(-c3ccc(F)cc3)cn2)Cc2cnc([C@@](C)(O)C(F)(F)F)n21 [Example 42] | 4 nM | – | 5 nM | –
C[C@H]1CN(C(=O)c2cccc(-c3ccc(C#N)cc3)n2)Cc2cnc([C@@](C)(O)C(F)(F)F)n21 [Example 43] | < 3 nM | 52% | 5 nM | –
C[C@H]1CN(C(=O)c2cc(-c3ccc(S(C)(=O)=O)cc3)nn2C)Cc2cnc([C@@](C)(O)C(F)(F)F)n21 [Example 44] | 5 nM | – | 7 nM | –
C[C@H]1CN(C(=O)c2ccc(-c3ccc(C#N)cc3)cn2)Cc2cnc([C@@](C)(O)C(F)(F)F)n21 [Example 45] | 9 nM | – | 8 nM | –
Cc1nc(-c2ccc(C#N)cc2)oc1C(=O)N1Cc2cnc([C@@](C)(O)C(F)(F)F)n2[C@@H](C)C1 [Example 46] | 5 nM | – | 5 nM | –
C[C@H]1CN(C(=O)c2cc(-c3ccc(F)cc3F)nn2C)Cc2cnc([C@@](C)(O)C(F)(F)F)n21 [Example 47] | < 3 nM | 53% | 4 nM | –
C[C@H]1CN(C(=O)c2cccc(-c3ccccn3)c2)Cc2cnc([C@@](C)(O)C(F)(F)F)n21 [Example 49] | 3 nM | – | 3 nM | –
C[C@H]1CN(C(=O)c2cc(-c3ccc(C#N)cc3)n(C3CC3)n2)Cc2cnc([C@@](C)(O)C(F)(F)F)n21 [Example 53, 4-(1-cyclopropyl-3-((S)-5-methyl-3-((R)-1,1,1-trifluoro-2-hydroxypropan-2-yl)-5,6,7,8-tetrahydroimidazo[1,5-a]pyrazine-7-carbonyl)-1H-pyrazol-5-yl)benzonitrile] | 4 nM | – | 8 nM | –

Second part, the molecule after the results:

IC50 (human PDHK1 (hPDHK1)) | inhibition at 0.003 µM (human PDHK1 (hPDHK1)) | IC50 (human PDHK2 (hPDHK2)) | hPDHK2 inhibitory rate at the lowest concentration of the test compound (human PDHK2 (hPDHK2); lowest concentration of the test compound in the assay (<3 nmol/L), shown when IC50 value could not be calculated) | SMILES
< 3 nM | 88% | < 3 nM | 81% | C[C@H]1CN(C(=O)c2ccnc(-c3ccc(F)cc3)c2)Cc2cnc([C@@](C)(O)C(F)(F)F)n21 [Example 48, (2-(4-fluorophenyl)pyridin-4-yl)((S)-5-methyl-3-((R)-1,1,1-trifluoro-2-hydroxypropan-2-yl)-5,6-dihydroimidazo[1,5-a]pyrazin-7(8H)-yl)methanone]
4 nM | – | 5 nM | – | C[C@H]1CN(C(=O)c2cc(-c3ccc(C#N)cc3F)nn2C)Cc2cnc([C@@](C)(O)C(F)(F)F)n21 [Example 50]
4 nM | – | 6 nM | – | C[C@H]1CN(C(=O)c2ccc(C3(O)CCC3)cc2)Cc2cnc([C@@](C)(O)C(F)(F)F)n21 [Example 51]
4 nM | – | 6 nM | – | C[C@H]1CN(C(=O)c2ccc(C3(O)CCCC3)cc2)Cc2cnc([C@@](C)(O)C(F)(F)F)n21 [Example 52]
< 3 nM | 53% | 5 nM | – | C[C@H]1CN(C(=O)c2ccnc(-c3ccc(F)cc3C#N)c2)Cc2cnc([C@@](C)(O)C(F)(F)F)n21 [Example 54]
< 3 nM | 54% | 4 nM | – | C[C@H]1CN(C(=O)c2cc(-c3ccc(F)cc3)ccn2)Cc2cnc([C@@](C)(O)C(F)(F)F)n21 [Example 55]
